Literature values as cited in paper PMC8288134, “Synthesis, potential antitumor activity, cell cycle analysis, and multitarget mechanisms of novel hydrazones incorporating a 4-methylsulfonylbenzene scaffold: a molecular docking study” (Journal of Enzyme Inhibition and Medicinal Chemistry, 2021).

What was measured:
OVCAR-8 = tested on: OVCAR-8; parameters: method as in https://dtp.cancer.gov/dtpstandard/dwindex/index.jsp; settings: reference drugs, ref https://dtp.cancer.gov/dtpstandard/dwindex/index.jsp; cited from earlier work
NCI-H23 = tested on: NCI-H23; parameters: method as in https://dtp.cancer.gov/dtpstandard/dwindex/index.jsp; settings: reference drugs, ref https://dtp.cancer.gov/dtpstandard/dwindex/index.jsp; cited from earlier work
M14 = tested on: M14; parameters: method as in https://dtp.cancer.gov/dtpstandard/dwindex/index.jsp; settings: reference drugs, ref https://dtp.cancer.gov/dtpstandard/dwindex/index.jsp; cited from earlier work
MALME-3M = tested on: MALME-3M; parameters: method as in https://dtp.cancer.gov/dtpstandard/dwindex/index.jsp; settings: reference drugs, ref https://dtp.cancer.gov/dtpstandard/dwindex/index.jsp; cited from earlier work
BT-549 = tested on: BT-549; parameters: method as in https://dtp.cancer.gov/dtpstandard/dwindex/index.jsp; settings: reference drugs, ref https://dtp.cancer.gov/dtpstandard/dwindex/index.jsp; cited from earlier work
[1] = tested on: NSC lung cancer tumour cell lines; settings: cited from earlier work; for GI50: read-out: GI50 (subpanel average), reference drugs, ref https://dtp.cancer.gov/dtpstandard/dwindex/index.jsp; for TGI (subpanel average): reference drugs, ref https://dtp.cancer.gov/dtpstandard/dwindex/index.jsp
DU-145 = tested on: DU-145; parameters: method as in https://dtp.cancer.gov/dtpstandard/dwindex/index.jsp; settings: reference drugs, ref https://dtp.cancer.gov/dtpstandard/dwindex/index.jsp; cited from earlier work
LOX IMVI = tested on: LOX IMVI; parameters: method as in https://dtp.cancer.gov/dtpstandard/dwindex/index.jsp; settings: reference drugs, ref https://dtp.cancer.gov/dtpstandard/dwindex/index.jsp; cited from earlier work
EKVX = tested on: EKVX; parameters: method as in https://dtp.cancer.gov/dtpstandard/dwindex/index.jsp; settings: reference drugs, ref https://dtp.cancer.gov/dtpstandard/dwindex/index.jsp; cited from earlier work
HCT-116 = tested on: HCT-116; parameters: method as in https://dtp.cancer.gov/dtpstandard/dwindex/index.jsp; settings: reference drugs, ref https://dtp.cancer.gov/dtpstandard/dwindex/index.jsp; cited from earlier work
[2] = tested on: breast cancer tumour cell lines; settings: cited from earlier work; for GI50: read-out: GI50 (subpanel average), reference drugs, ref https://dtp.cancer.gov/dtpstandard/dwindex/index.jsp
IGROV1 = tested on: IGROV1; parameters: method as in https://dtp.cancer.gov/dtpstandard/dwindex/index.jsp; settings: reference drugs, ref https://dtp.cancer.gov/dtpstandard/dwindex/index.jsp; cited from earlier work
KM12 = tested on: KM12; parameters: method as in https://dtp.cancer.gov/dtpstandard/dwindex/index.jsp; settings: reference drugs, ref https://dtp.cancer.gov/dtpstandard/dwindex/index.jsp; cited from earlier work
SNB-19 = tested on: SNB-19; parameters: method as in https://dtp.cancer.gov/dtpstandard/dwindex/index.jsp; settings: reference drugs, ref https://dtp.cancer.gov/dtpstandard/dwindex/index.jsp; cited from earlier work
MDA-MB-435 = tested on: MDA-MB-435; parameters: method as in https://dtp.cancer.gov/dtpstandard/dwindex/index.jsp; settings: reference drugs, ref https://dtp.cancer.gov/dtpstandard/dwindex/index.jsp; cited from earlier work
SK-MEL-2 = tested on: SK-MEL-2; parameters: method as in https://dtp.cancer.gov/dtpstandard/dwindex/index.jsp; settings: reference drugs, ref https://dtp.cancer.gov/dtpstandard/dwindex/index.jsp; cited from earlier work
[3] = read-out: LC50 (subpanel average), reference drugs, ref https://dtp.cancer.gov/dtpstandard/dwindex/index.jsp

Question: For `C#Cc1cccc(Nc2ncnc3cc(OCCOC)c(OCCOC)cc23)c1` [Erlotinib, erlotinib], which GI50 (OVCAR-8) is on record?
Answer: 7.94 µM

Question: And the GI50 (NCI-H23)?
Answer: 31.6 µM

Question: And the GI50 (M14)?
Answer: 6.31 µM

Question: What about the GI50 (MALME-3M) of the same molecule?
Answer: 1.58 µM

Question: What about the GI50 (BT-549) of the same molecule?
Answer: 31.6 µM

Question: And the GI50 [1]?
Answer: 13.1 µM

Question: And the CC50 [1, 3]?
Answer: 97.7 µM

Question: What about the “TGI (subpanel average)” value [1] of the same molecule?
Answer: 73.76 µM

Question: What about the GI50 (DU-145) of the same molecule?
Answer: 1.99 µM

Question: What about the GI50 (LOX IMVI) of the same molecule?
Answer: 6.31 µM

Question: What about the GI50 (EKVX) of the same molecule?
Answer: 0.199 µM

Question: And the GI50 (HCT-116)?
Answer: 6.31 µM

Question: What about the GI50 [2] of the same molecule?
Answer: 24.7 µM

Question: And the CC50 [2, 3]?
Answer: 96.4 µM

Question: And the GI50 (IGROV1)?
Answer: 0.316 µM

Question: And the GI50 (KM12)?
Answer: 79.4 µM

Question: What about the GI50 (SNB-19) of the same molecule?
Answer: 12.6 µM

Question: What about the GI50 (MDA-MB-435) of the same molecule?
Answer: 19.9 µM

Question: And the GI50 (SK-MEL-2)?
Answer: 6.31 µM

Question: What does the source list for `COc1cc2ncnc(Nc3ccc(F)c(Cl)c3)c2cc1OCCCN1CCOCC1` [Gefitinib, gefitinib]?
Answer: GI50 (NCI-H23): 2.51 µM; GI50 (M14): 2 µM; GI50 (MALME-3M): 3.98 µM; GI50 (BT-549): 3.16 µM; GI50 [1]: 2.05 µM; TGI (subpanel average) [1]: 13.86 µM; GI50 (DU-145): 1.58 µM; GI50 (LOX IMVI): 3.16 µM; GI50 (HCT-116): 3.16 µM; GI50 [2]: 4.67 µM; TGI (subpanel average) ([2]; reference drugs, ref https://dtp.cancer.gov/dtpstandard/dwindex/index.jsp): 18.62 µM; GI50 (IGROV1): 3.16 µM; GI50 (KM12): 10 µM; GI50 (SNB-19): 3.16 µM; GI50 (MDA-MB-435): 3.16 µM; GI50 (SK-MEL-2): 10 µM

Question: With `CS(=O)(=O)c1ccc(C(=O)Nc2ccc(Cl)c(-c3ccccn3)c2)c(Cl)c1` [Vismodegib, vismodegib] as the molecule, how does the GI50 (OVCAR-8) read?
Answer: 31.6 µM

Question: What about the GI50 (NCI-H23) of the same molecule?
Answer: 50.1 µM

Question: And the GI50 (M14)?
Answer: 31.6 µM

Question: And the GI50 (MALME-3M)?
Answer: 39.8 µM

Question: What about the GI50 (DU-145) of the same molecule?
Answer: 50.1 µM

Question: What about the GI50 (LOX IMVI) of the same molecule?
Answer: 39.8 µM

Question: What about the GI50 (EKVX) of the same molecule?
Answer: 39.8 µM

Question: And the GI50 (HCT-116)?
Answer: 50.1 µM

Question: And the GI50 (IGROV1)?
Answer: 100 µM

Question: What about the GI50 (KM12) of the same molecule?
Answer: 31.6 µM

Question: And the GI50 (SNB-19)?
Answer: 63.1 µM

Question: And the GI50 (MDA-MB-435)?
Answer: 31.6 µM

Question: And the GI50 (SK-MEL-2)?
Answer: 39.8 µM
